Measured values as given in US20110112133A1, “DIHYDRO PYRROLOQUINOLINE DERIVATIVES” (Takeda Pharmaceutical Company Limited, priority 2009, published 2011).
Counter-ions that a name gives are not always drawn.

What was measured:
hNK2 receptor = biological target: T1, hNK2 receptor (Homo sapiens, UniProt P21452); test: Radioligand receptor binding inhibitory activity using membrane fraction of hNK2 receptor-expressing CHO cell ([125I]-NKA); settings: for inhibition at 1 µM / inhibition at 0.1 µM / inhibition at 0.01 µM: read-out: hNK2 receptor binding inhibitory activity (inhibitory rate (%))
T1 construct: host or cells: CHO cells
T1 sequence (P21452 1-398): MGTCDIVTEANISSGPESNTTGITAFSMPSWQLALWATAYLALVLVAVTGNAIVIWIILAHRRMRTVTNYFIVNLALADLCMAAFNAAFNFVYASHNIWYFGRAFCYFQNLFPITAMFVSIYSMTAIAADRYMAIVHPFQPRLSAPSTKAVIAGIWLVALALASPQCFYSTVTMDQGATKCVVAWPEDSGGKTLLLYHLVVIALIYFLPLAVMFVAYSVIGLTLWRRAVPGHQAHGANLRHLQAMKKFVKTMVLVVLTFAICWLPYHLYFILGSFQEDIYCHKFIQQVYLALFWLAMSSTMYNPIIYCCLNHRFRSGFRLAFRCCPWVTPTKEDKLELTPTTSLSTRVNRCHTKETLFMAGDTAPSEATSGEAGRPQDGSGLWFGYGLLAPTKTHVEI
Description: Radioligand Receptor Binding Inhibitory Activity Using Membrane Fraction of hNK2 Receptor-Expressing CHO Cell
hNK2 receptor-expressing CHO cells (produced by EUROSCREEN) were cultured in a flask placed HAM-F12 medium containing 400 μg/mL Geneticin, 100 U/mL penicillin, 100 μg/mL streptomycin and 10% inactivated serum. The medium was removed and adhered cells were washed with PBS, and PBS containing 5 mM EDTA was added to detach the cells from the flask. The cells were recovered by centrifugation, suspended in suspending buffer A (15 mM Tris-HCl (pH 7.5), 12.5 mM MgCl2, 0.3 mM EDTA, 1 mM EGTA (Ethylene Glycol Bis(beta-aminoethylether)-N,N,N,N-tetraacetic Acid)), disrupted by POLYTRON homogenizer (manufactured by KINEMATICA) and centrifuged at 850×g for 10 min at 4° C. The supernatant was recovered and ultracentrifuged at 142000×g for 60 min at 4° C. The precipitated fraction was suspended in suspending buffer B (7.5 mM Tris-HCl (pH 7.5), 12.5 mM MgCl2, 0.3 mM EDTA, 1 mM EGTA, 250 mM sucrose), and cryopreserved (at −80° C.) as a membrane fraction preparation of hNK2 receptor-expressing CHO cell.
The radioligand receptor binding assay was performed in a 96 well microassay plate format with a final volume of 200 μL.
An assay buffer (50 μL, 50 mM Tris-HCl (pH 7.4), 0.02% bovine serum albumin, 2 μg/mL chymostatin, 40 μg/mL bacitracin, 40 μg/mL APMSF, 3 mM MnCl2) was added to a 96 well microassay plate. Thereto was added 50 μL of the above-mentioned cryopreserved membrane fraction preparation suspended in the assay buffer (20 μg/mL). An assay buffer (50 μL) containing 2% dimethyl sulfoxide was added to examine the total binding, 4 μM unlabeled NKA (produced by Peptide Institute, Inc.) solution (50 μL) diluted with an assay buffer containing 2% dimethyl sulfoxide was added to examine non-specific binding, and a test compound diluted with an assay buffer (50 μL, containing 2% dimethyl sulfoxide) was added. Furthermore, […] [^125I]-NKA (produced by NEN) solution (50 μL) was added to each well.
After reaction at room temperature for 30 min, using a cell harvester (manufactured by PerkinElmer), the reaction was stopped by rapid filtration on a unifilter plate (GF/C) (manufactured by PerkinElmer), which had been immersed in 0.3% aqueous polyethyleneimine solution for one day, and the cells were washed 10 times with 50 mM Tris-HCl (pH 7.4) buffer (250 μL) containing 0.02% bovine serum albumin. The GF/C filter plate was dried and 20 μL of MicroScinti-0 (manufactured by PerkinElmer) was added to each well and the radioactivity was measured by TopCount (manufactured by PerkinElmer).
Specific binding is shown by the value obtained by subtracting non-specific binding from the total binding. The binding inhibitory activity of the test compound is shown by the ratio of the value obtained by subtracting the measured value associated with the addition of the test compound from the total binding, to the value of the specific binding.

| SMILES | inhibition at 1 µM (hNK2 receptor; test compound 10^−6 M) | inhibition at 0.1 µM (hNK2 receptor; test compound 10^−7 M) | inhibition at 0.01 µM (hNK2 receptor; test compound 10^−8 M) | hNK2 receptor binding inhibitory activity (inhibitory rate (%)) (hNK2 receptor; test compound 10^−6 M) | hNK2 receptor binding inhibitory activity (inhibitory rate (%)) (hNK2 receptor; test compound 10^−7 M) | hNK2 receptor binding inhibitory activity (inhibitory rate (%)) (hNK2 receptor; test compound 10^−8 M) | melting point |
| --- | --- | --- | --- | --- | --- | --- | --- |
| Cc1ccn(-c2ccc(C(=O)N[C@@H]3CCC(F)(F)C[C@@H]3C(=O)N3CCc4c(-c5ncc[nH]5)nc5ccc(F)cc5c43)cc2)n1 [Example 6, N-[(1R,2S)-4,4-difluoro-2-{[8-fluoro-4-(1H-imidazol-2-yl)-2,3-dihydro-1H-pyrrolo[3,2-c]quinolin-1-yl]carbonyl}cyclohexyl]-4-(3-methyl-1H-pyrazol-1-yl)benzamide hydrochloride] | 99.4% | 99.4% | 96.1% | – | – | – | – |
| Cc1ccn(-c2ccc(C(=O)N[C@@H]3CCC(F)(F)C[C@@H]3C(=O)N3CCc4c(-c5ccsc5)nc5ccccc5c43)cc2)n1.Cl [Example 8] | – | – | – | 100.7% | 100.2% | 98.5% | – |
| Cc1ccn(-c2ccc(C(=O)N[C@@H]3CCC(F)(F)C[C@@H]3C(=O)N3CCc4c(-c5ccccc5)nc5ccc(F)cc5c43)cc2)n1.Cl [Example 10, N-{(1R,2S)-4,4-difluoro-2-[(8-fluoro-4-phenyl-2,3-dihydro-1H-pyrrolo[3,2-c]quinolin-1-yl)carbonyl]cyclohexyl}-4-(3-methyl-1H-pyrazol-1-yl)benzamide hydrochloride] | – | – | – | 99.9% | 99.5% | 92.8% | – |
| Cc1ccn(-c2ccc(C(=O)N[C@@H]3CCC(F)(F)C[C@@H]3C(=O)N3CCc4c(-c5ncc[nH]5)nc5ccccc5c43)cc2)n1.Cl [Example 12, N-[(1R,2S)-4,4-difluoro-2-{[4-(1H-imidazol-2-yl)-2,3-dihydro-1H-pyrrolo[3,2-c]quinolin-1-yl]carbonyl}cyclohexyl]-4-(3-methyl-1H-pyrazol-1-yl)benzamide hydrochloride] | 101% | 101% | 99.8% | – | – | – | 232 °C |
